The target in one experiment is T1, mouse SLO3 (Mus musculus, UniProt O54982).
T1 construct: expressed in transfected cells; host or cells: HEK293 (transient, Lipofectamine 3000, with pmaxGFP as marker)
T1 sequence (O54982 1-1121): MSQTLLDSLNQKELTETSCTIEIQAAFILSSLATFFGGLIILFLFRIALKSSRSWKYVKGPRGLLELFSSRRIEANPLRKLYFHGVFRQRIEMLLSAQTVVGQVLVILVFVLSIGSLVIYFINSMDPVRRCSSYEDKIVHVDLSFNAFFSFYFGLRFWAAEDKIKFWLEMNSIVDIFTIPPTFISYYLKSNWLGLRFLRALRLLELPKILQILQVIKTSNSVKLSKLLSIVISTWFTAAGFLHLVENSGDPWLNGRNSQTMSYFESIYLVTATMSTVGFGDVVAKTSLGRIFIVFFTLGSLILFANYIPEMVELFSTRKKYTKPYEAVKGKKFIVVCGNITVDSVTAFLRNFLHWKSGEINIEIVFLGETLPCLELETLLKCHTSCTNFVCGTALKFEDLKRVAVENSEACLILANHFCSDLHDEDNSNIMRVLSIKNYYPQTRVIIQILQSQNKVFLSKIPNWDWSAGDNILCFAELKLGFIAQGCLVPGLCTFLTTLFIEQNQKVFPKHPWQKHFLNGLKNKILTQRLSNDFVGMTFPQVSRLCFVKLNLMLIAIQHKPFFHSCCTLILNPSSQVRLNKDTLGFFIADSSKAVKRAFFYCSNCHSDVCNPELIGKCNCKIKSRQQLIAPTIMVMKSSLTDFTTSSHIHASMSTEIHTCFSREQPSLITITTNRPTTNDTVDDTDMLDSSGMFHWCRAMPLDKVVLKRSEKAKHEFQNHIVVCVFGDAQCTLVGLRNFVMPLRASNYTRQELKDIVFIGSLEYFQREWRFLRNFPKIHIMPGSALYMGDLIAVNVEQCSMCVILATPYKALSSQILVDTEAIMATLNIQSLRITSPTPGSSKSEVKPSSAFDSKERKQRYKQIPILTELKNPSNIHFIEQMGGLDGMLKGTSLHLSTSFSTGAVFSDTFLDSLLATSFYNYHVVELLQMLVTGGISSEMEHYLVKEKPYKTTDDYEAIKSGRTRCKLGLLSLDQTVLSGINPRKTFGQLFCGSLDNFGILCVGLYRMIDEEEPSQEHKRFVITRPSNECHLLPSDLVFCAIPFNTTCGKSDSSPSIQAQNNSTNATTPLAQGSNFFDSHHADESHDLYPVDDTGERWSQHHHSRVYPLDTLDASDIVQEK
T1 sequence (Q5M8M9 24-314 partner): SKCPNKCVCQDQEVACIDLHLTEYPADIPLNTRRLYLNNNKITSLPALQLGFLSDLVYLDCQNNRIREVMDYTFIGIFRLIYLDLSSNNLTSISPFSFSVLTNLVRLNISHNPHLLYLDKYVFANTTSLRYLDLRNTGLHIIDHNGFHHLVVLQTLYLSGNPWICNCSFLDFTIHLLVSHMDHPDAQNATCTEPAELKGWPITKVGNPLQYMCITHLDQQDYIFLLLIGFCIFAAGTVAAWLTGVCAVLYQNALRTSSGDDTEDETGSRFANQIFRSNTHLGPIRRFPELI
In words: Whole-cell recording, mouse SLO3-γ2 expressed in HEK293 cells. Format: cell-based. Conditions: for IC50: HEK293 cells transfected with murine SLO3-γ2, read-out: mSLO3 IC50; for Hill coefficient: mouse SLO3-γ2 in HEK293 cells. Here is the method:
HEK293 cells were plated at a density of ∼400,000 cells per 40 mm dish the day before transfection. Lipofectamine 3000 transfection reagent (catalog #L3000015; Thermo Fisher Scientific) was used to transfect HEK293 cells following manufacturer’s instructions. Per 40 mm dish, 2.25 μg of mouse SLO3 and its auxiliary subunit γ2 cDNAs (1:1) were added to cell layers that were 70–90% confluent. As a marker for transfection, cells were cotransfected with pmaxGFP, a CMV plasmid expressing green fluorescent protein (Amaxa Biosystems) at 0.2 μg per dish. After transfection, the cells were incubated at 37 °C with 5% CO2 for 2–4 d until recording.
Voltage-clamp recordings were performed using an Axopatch 200B amplifier (Molecular Devices). Recordings were filtered at 5 kHz with the internal filter of the amplifier and digitized at 50 kHz using a Digidata 1550B digitizer (Molecular Devices). Recording pipettes were pulled from borosilicate glass with tip resistances of 3–8 MΩ after filling with pipette solution containing (in mM): 140 KMES, 1 EGTA, 10 HEPES, pH 7.4 with KOH. Bath solutions contained (in mM): 135 NaMES, 5 KMES, 2 MgCl2, and 10 HEPES, pH 7.4 with NaOH. Experiments were performed at room temperature (∼22 °C). Whole-cell currents were evoked from a holding potential of −60 mV in steps from −80 to +100 mV in 10 mV increments. Test compounds were prepared daily from a 10 mM stock solution (in DMSO).
Data were analyzed with a pClamp 10.6 (Molecular Devices). VU6047606 and VU6032735 inhibition dose–response relationships were fit by the Hill equation in OriginPro 7.5 (OriginLab Corporation): R=1/1+(C/IC50)^n+Ioff , in which R is fractional unblock, C is compound concentration, IC50 is the half inhibition concentration, n is the Hill coefficient, and I off is an offset item for leak current. Error bars in the figures represent the SDs. Each data point is averaged from at least 5 measurements. Curve-fitting results are reported as the fitted values with standard error, which was estimated by OriginPro according to the Error Propagation formula.

The target of the next experiment is Dopamine D1 (Homo sapiens, UniProt P21728). Kind of experiment: LeadProfilingScreen radioligand binding.
Another experiment has as its target Endothelin ETA (Homo sapiens, UniProt P25101). In words: LeadProfilingScreen radioligand binding.
For the next experiment, the system named is Thyroid Hormone. In words: LeadProfilingScreen radioligand binding. The arrangement: species or system rat.

Chain of Dopamine D1 (P21728 whole entry): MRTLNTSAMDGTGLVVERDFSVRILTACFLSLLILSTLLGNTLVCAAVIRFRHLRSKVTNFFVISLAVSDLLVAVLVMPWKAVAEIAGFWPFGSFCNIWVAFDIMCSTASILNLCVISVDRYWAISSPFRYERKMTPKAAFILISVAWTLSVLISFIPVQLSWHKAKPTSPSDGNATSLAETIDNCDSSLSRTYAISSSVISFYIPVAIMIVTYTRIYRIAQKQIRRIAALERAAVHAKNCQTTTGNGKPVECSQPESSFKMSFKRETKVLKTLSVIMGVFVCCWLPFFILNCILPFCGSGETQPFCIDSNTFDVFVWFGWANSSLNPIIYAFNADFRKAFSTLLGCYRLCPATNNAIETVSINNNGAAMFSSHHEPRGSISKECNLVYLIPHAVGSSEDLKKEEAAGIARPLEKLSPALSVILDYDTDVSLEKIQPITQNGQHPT
Chain of Endothelin ETA (P25101 21-427): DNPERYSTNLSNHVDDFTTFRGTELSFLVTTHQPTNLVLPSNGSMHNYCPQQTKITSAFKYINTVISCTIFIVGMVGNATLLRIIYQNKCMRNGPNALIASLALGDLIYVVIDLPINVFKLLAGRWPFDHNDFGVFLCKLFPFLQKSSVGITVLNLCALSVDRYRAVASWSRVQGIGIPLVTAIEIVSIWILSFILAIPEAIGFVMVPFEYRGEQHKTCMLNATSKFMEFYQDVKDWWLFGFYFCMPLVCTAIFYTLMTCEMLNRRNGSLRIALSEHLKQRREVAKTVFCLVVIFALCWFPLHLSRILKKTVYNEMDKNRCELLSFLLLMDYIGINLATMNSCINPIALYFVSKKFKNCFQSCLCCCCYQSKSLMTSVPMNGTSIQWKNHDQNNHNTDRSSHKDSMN

Usually IC50 stands for the concentration that gives 50% inhibition. One may read the Hill coefficient as the slope factor of the fitted curve. As usually defined, the inhibition is the relative decrease from the control value, in per cent. Broadly, the % inhibition is the share of the control response that was lost under treatment. As for `O=C(c1ccc(OCc2ccc(OC(F)(F)F)cc2)cc1)N1CCN(c2ccc(C(F)(F)F)cn2)CC1` [VU6032735], the IC50 on mouse SLO3 was 730 nM. Moreover, the “fold more potent than VU6047606 on mouse SLO3” value at mouse SLO3 (HEK293 cells, mSLO3-γ2) is recorded as around 1.6 fold. Further, the Hill coefficient on mouse SLO3 was determined as 1.03 ± 0.02. For the same compound, the inhibition at 10 µM at Dopamine D1 worked out at 12%; at Endothelin ETA, 9%. In addition, the “% inhibition at 10 μM” value in the experiment on Thyroid Hormone turned out to be 4%.
With `Cc1cc(Cl)cc2sc(O[C@H]3CCN(C(=O)CCCS(=O)(=O)c4cccc(Br)c4)C[C@H]3F)nc12` [VU6047606], at mouse SLO3, the concentration for half-maximal inhibition (IC50) amounted to 1150 nM and the Hill coefficient is 0.83 ± 0.19. For the same compound, on mouse SLO3 (mouse versus human SLO3), the “fold less potent on murine SLO3 than on human SLO3” value is reported as around 7 fold. For the same compound, on Dopamine D1, at 10 µM the inhibition was 25%. The same compound returned an inhibition at 10 µM at Endothelin ETA of 5%. For the same compound, the “% inhibition at 10 μM” value with Thyroid Hormone worked out at 12%.

The record behind these values is publication PMC12441834, “Highly Potent and Subtype-Selective Sperm-Specific Potassium Channel SLO3 Inhibitors Display High Tissue Exposure in the Murine Female Reproductive Tract” (ACS Pharmacology & Translational Science, 2025).
